Legend:
HCT 116 cells = test: Cytotoxicity assay, HCT 116 colon cancer cells; type: cell-based, human; details: for inhibition at 10 µM / inhibition at 100 µM: read-out: percentage inhibition of HCT 116 cells
Text: (§1) Evaluation of the cytotoxic properties of the compounds presented in Table 1, Table 2, Table 3 and Table 4 was undertaken using the procedure outlined in [7]. In brief, the HCT 116 cells were obtained from the ATCC and cultured in McCoy’s 5A medium. The CRL 1790 cells were obtained from the ATCC and cultured in Minimum Essential Medium. The MCF-7 and MDA-MBA-231 cells were obtained from the Saskatchewan Cancer Agency and cultured in DMEM. In each assay the culture medium was supplemented with 10% fetal bovine serum and 1% penicillin–streptomycin antibiotics. The time of the bioassays was 48 h, unless indicated otherwise. All determinations were carried out in triplicate on three different occasions.

MCF-7 cells = test: Cytotoxicity assay, MCF-7 breast cancer cells; type: cell-based, human; details: for inhibition at 10 µM / inhibition at 100 µM: read-out: percentage inhibition of MCF-7 cells
Text: as §1

MDA-MB-231 cells = test: Cytotoxicity assay, MDA-MB-231 breast cancer cells; type: cell-based, human; details: Homo sapiens, MDA-MB-231, 48 h, read-out: percentage inhibition of MDA-MB-231 cells
Text: as §1

CRL 1790 cells = test: Cytotoxicity assay, non-malignant CRL 1790 colon cells; type: cell-based; details: Homo sapiens, 48 h, Table 2, read-out: Non-Malignant CRL 1790 Cells IC50
Text: as §1

Ramos cells [1] = test: Cytotoxicity (CC50), Ramos cells; type: cell-based, human; details: for CC50: Homo sapiens, Ramos, 24 h incubation; for SI Ramos: average CC50 of non-malignant cells / CC50 Ramos
Method: (§2) In brief, the compounds were incubated for 24 h with the neoplasms, using DMEM and RPMI media. Three independent experiments were carried out.

NALM-60 cells = test: Cytotoxicity (CC50), NALM-60 cells; type: cell-based, human; details: for CC50: Homo sapiens, 24 h incubation; for SI NALM-60: average CC50 of non-malignant cells / CC50 NALM-60
Method: as §2

CEM cells = test: Cytotoxicity (CC50), CEM cells; type: cell-based, human; details: for CC50: Homo sapiens, CCRF-CEM, 24 h incubation; for SI CEM: average CC50 of non-malignant cells / CC50 CEM
Method: as §2

HL-60 cells = test: Cytotoxicity (CC50), HL-60 cells; type: cell-based, human; details: for CC50: Homo sapiens, HL-60, 24 h incubation; for SI HL-60: average CC50 of non-malignant cells / CC50 HL-60
Method: as §2

JURKAT cells = test: Cytotoxicity (CC50), Jurkat cells; type: cell-based, human; details: for CC50: Homo sapiens, Jurkat, 24 h incubation; for SI JURKAT: average CC50 of non-malignant cells / CC50 JURKAT
Method: as §2

RAJI cells = test: Cytotoxicity (CC50), Raji cells; type: cell-based, human; details: for CC50: Homo sapiens, Raji, 24 h incubation; for SI RAJI: average CC50 of non-malignant cells / CC50 RAJI
Method: as §2

[2] = Cytotoxicity (CC50), non-malignant Hs27 foreskin cells; type: cell-based; details: human, 24 h incubation
Method: as §2

[3] = Cytotoxicity (CC50), non-malignant MCF-10A breast cells; type: cell-based; details: human, MCF-10A cells (non-malignant breast cells); 24 h incubation; read-out: Non-Malignant Cells CC50, MCF10A
Method: as §2

[4] = system: Ramos, NALM-60, CEM, HL-60, JURKAT, RAJI cells; test: Cytotoxicity (CC50), average over six leukemia/lymphoma cell lines; type: cell-based, human; details: for CC50: Homo sapiens, average over six neoplastic cell lines
Method: as §2

[5] = Cytotoxicity (CC50), average over non-malignant cells; type: cell-based; details: human, Hs27 and MCF10A cells (non-malignant), average of both
Method: as §2

Ramos cells [6] = test: Mitochondrial membrane potential of Ramos cells (JC-1 dye, flow cytometry); type: cell-based, human; details: 5 h, Figure 3
Method: The effect of 1l on the mitochondrial membrane potential of Ramos cells was determined using the procedure laid out in [9]. In brief, the cells were treated with 1l for 5 h, stained with the JC-1 dye, and then the results were analyzed by flow cytometry.
The MMP of Ramos cells was determined using the JC-1 dye. In this assay, JC-1 enters the energized mitochondria in healthy cells and forms aggregates to produce red fluorescence at 590 nm. However, cells undergoing apoptotic cell death have a low mitochondrial membrane potential.

## C=CC(=O)NNC(=O)c1ccccc1 [1a, N^2-Acryloylbenzohydrazide]
HCT 116 cells; Homo sapiens, HCT-116, 48 h
  inhibition at 10 µM: 10.6 ± 1.7%
  inhibition at 100 µM: 94.1 ± 1.44%
HCT 116 cells; Homo sapiens, HCT-116, Table 2, 48 h, read-out: Neoplastic Cells IC50, HCT 116
  IC50: 36.9 ± 2.84 µM
HCT 116 cells; IC50 CRL 1790 / IC50 HCT 116, Table 2
  SI (selectivity index): >2.70
MCF-7 cells; Homo sapiens, MCF7, 48 h
  inhibition at 10 µM: 5.47 ± 3.52%
  inhibition at 100 µM: 51.1 ± 2.87%
MDA-MB-231 cells
  inhibition at 10 µM: -12.2 ± 1.5%
  inhibition at 100 µM: 52.1 ± 2.04%
CRL 1790 cells
  IC50: > 100 µM
Ramos cells [1]
  CC50: 0.19 ± 0.01 µM
  SI Ramos: 67.9
NALM-60 cells
  CC50: 2.74 ± 0.59 µM
  SI NALM-60: 4.71
CEM cells
  CC50: 0.91 ± 0.48 µM
  SI CEM: 14.2
HL-60 cells
  CC50: 3.32 ± 0.26 µM
  SI HL-60: 3.89
JURKAT cells
  CC50: 3.52 ± 0.36 µM
  SI JURKAT: 3.65
RAJI cells
  CC50: 5.18 ± 0.35 µM
  SI RAJI: 2.49
[2]
  CC50 at 24 h: 12.1 ± 0.91 µM
[3]
  CC50 at 24 h: 13.7 ± 1.1 µM
[4]
  Avg SI, neoplastic cells: 16.1
  CC50: 2.64 µM
[5]
  CC50 at 24 h: 12.9 µM
other
  melting point: 177 to 179 °C

## C=CC(=O)NNC(=O)c1ccc(OC)cc1 [1l, N^2-Acryloyl-4-methoxylbenzohydrazide]
HCT 116 cells; Homo sapiens, HCT-116, 48 h
  inhibition at 10 µM: 8.62 ± 2.79%
  inhibition at 100 µM: 85.1 ± 3.28%
MCF-7 cells; Homo sapiens, MCF7, 48 h
  inhibition at 10 µM: 60.6 ± 3.29%
  inhibition at 100 µM: 99.4 ± 2.34%
MCF-7 cells; Homo sapiens, MCF7, Table 2, 48 h, read-out: Neoplastic Cells IC50, MCF-7
  IC50: 3.18 ± 0.53 µM
MCF-7 cells; IC50 CRL 1790 / IC50 MCF-7, Table 2
  SI (selectivity index): >31.5
MDA-MB-231 cells
  inhibition at 10 µM: -4.95 ± 3.12%
  inhibition at 100 µM: 47.7 ± 3.19%
CRL 1790 cells
  IC50: > 100 µM
Ramos cells [1]
  CC50: 0.19 ± 0.01 µM
  SI Ramos: 94.2
NALM-60 cells
  CC50: 3.25 ± 0.99 µM
  SI NALM-60: 5.51
CEM cells
  CC50: 1.42 ± 0.25 µM
  SI CEM: 12.6
HL-60 cells
  CC50: 1.86 ± 0.66 µM
  SI HL-60: 9.62
JURKAT cells
  CC50: 2.17 ± 0.45 µM
  SI JURKAT: 8.25
RAJI cells
  CC50: 2.93 ± 0.43 µM
  SI RAJI: 6.11
[2]
  CC50 at 24 h: 17.7 ± 0.62 µM
[3]
  CC50 at 24 h: 18.1 ± 0.84 µM
[4]
  Avg SI, neoplastic cells: 22.7
  CC50: 1.97 µM
[5]
  CC50 at 24 h: 17.9 µM
Ramos cells [6]; CC50 concentration of 1l, vs control
  effect on mitochondrial membrane potential of Ramos cells: significantly depolarized
Ramos cells [6]; doubled (2 x CC50) concentration of 1l
  effect on mitochondrial membrane potential of Ramos cells: approximately twofold increase in the mitochondrial depolarization
